Measured values reported in patent US20040132739A1, “Combination of a gelatinase inhibitor and an anti-tumor agent, and uses thereof” (priority 2001, published 2004).

Tests used:
HOC-22 ovarian carcinoma = assay: human orthotopic ovarian carcinoma mouse xenograft model HOC-22, survival; format: in vivo; conditions: versus vehicle/control mice (median survival 30 days); RO 28-2653 45 mg/kg oral daily six times a week, day 7 to 21; Cisplatin 4 doses of 3 mg/kg i.v. every 4 days from day 7
Method: DDP=Cisplatin. […] Statistics was calculated using the log rank test. […] Cisplatin treatment consisted of 4 doses of 3 mg/kg i.v. per mouse once every 4 days, starting on day 7.

[1] = test system: MatLyLu prostate carcinoma; assay: rat syngeneic orthotopic prostate carcinoma model MatLyLu, primary tumor size; format: in vivo; conditions: as compared to vehicle-treated animals; RO 28-2653 100 mg/kg oral daily, Etoposide 25 mg/m^2 i.p. once daily, day 6 to day 17
Method: Etoposide was given intraperitoneally once daily, from day 6 to day 17, at a dose of 25 mg/m^2.

[2] = test system: PancTul pancreas carcinoma; conditions: for inhibition of primary tumor growth: RO 28-2653 45 mg/kg oral daily day 7 to 30; for inhibition of primary tumor growth / Volume Primary tumor (Vm) / average number of metastases per animal: Gemcitabine 2.2 mg/kg i.p. every second day, day 7 to 30; for Volume Primary tumor (Vm) / average number of metastases per animal: RO 28-2653 45 mg/kg oral daily; for Metastasis Diaphragm / Metastasis Kidneys/Adrenal gland (capsule) / Metastasis Ligament of the uterus/testis (serosa), seminal vesicles / Metastasis Liver hilus / Metastasis Liver, in parenchyme / Metastasis Liver, on serosa / Metastasis Lung/Mediastinum / Metastasis Lymph nodes in mesentery / Metastasis Mesentery 3-20 metastasis(1-18 mm^3) / Metastasis Mesentery < 3 metastasis(^2 mm^3) / Metastasis Pelvis / Metastasis Site of surgical incision Large 80-280 mm^3 / Metastasis Site of surgical incision Medium < 50 mm^3 / Metastasis Site of surgical incision Small < 10 mm^3 / Metastasis Spleen (serosa), gastrosplenic ligament: animals with metastasis / animals in group; for Necrosis Primary tumor: animals with necrosis / animals in group; for Tumor take rate Primary tumor: animals with tumor / animals in group; for Body weight (m): mean change (spread)
Method: The activity of RO 28-2653 in combination with Gemcitabine was evaluated in the human orthotopic pancreas carcinoma mouse xenograft model PancTul with primary tumor size and number and size of metastases as endpoints.
Effect of the combination of RO 28-2653 and Gemcitabine on primary tumor volume in the orthotopic PancTul pancreas cancer xenograft model. Mice were treated with RO 28-2653 with daily oral doses of 45 mg/kg from day 7 until day 30. Gemcitabine treatment consisted of one intraperitoneal dose of 2.2 mg/kg every second day from day 7 to day 30.
Effect of the combination of RO 28-2653 and Gemcitabine on metastatic spread in the orthotopic PancTul pancreas cancer xenograft model. Mice were treated with RO 28-2653 with daily oral doses of 45 mg/kg from day 7 until day 30. Gemcitabine treatment consisted of one intraperitoneal dose of 2.2 mg/kg every second day from day 7 to day 30.

[3] = toxicological tests over a wide range of doses; format: in vivo; conditions: side effects like those of broad-spectrum MMP inhibitors
Source text: Thus, no dose-limiting toxicities were expected with RO 28-2653, and accordingly no additional benefit from co-treatment with cytostatic/cytotoxic drugs was expected. However, to explore also the distant possibility of an additional benefit from combination treatment, such studies were initiated and conducted in various animal models. The models and cytostatic/cytotoxic drugs were chosen to reflect as broad a spectrum of oncological indications and clinically active treatment principles as possible.

| Compound | increase in lifespan (HOC-22 ovarian carcinoma) | inhibition of primary tumor growth [1] | inhibition of primary tumor growth [2] | Volume Primary tumor (Vm) [2] | average number of metastases per animal [2] | Metastasis Diaphragm [2] | Metastasis Kidneys/Adrenal gland (capsule) [2] | Metastasis Ligament of the uterus/testis (serosa), seminal vesicles [2] | Metastasis Liver hilus [2] | Metastasis Liver, in parenchyme [2] | Metastasis Liver, on serosa [2] | Metastasis Lung/Mediastinum [2] | Metastasis Lymph nodes in mesentery [2] | Metastasis Mesentery 3-20 metastasis(1-18 mm^3) [2] | Metastasis Mesentery < 3 metastasis(^2 mm^3) [2] | Metastasis Pelvis [2] | Metastasis Site of surgical incision Large 80-280 mm^3 [2] | Metastasis Site of surgical incision Medium < 50 mm^3 [2] | Metastasis Site of surgical incision Small < 10 mm^3 [2] | Metastasis Spleen (serosa), gastrosplenic ligament [2] | further results |
| --- | --- | --- | --- | --- | --- | --- | --- | --- | --- | --- | --- | --- | --- | --- | --- | --- | --- | --- | --- | --- | --- |
| N.N.[Cl][Pt][Cl] [Cisplatin, reference compound] | 95% |  |  |  |  |  |  |  |  |  |  |  |  |  |  |  |  |  |  |  |  |
| COc1cc([C@@H]2c3cc4c(cc3[C@@H](O[C@@H]3O[C@@H]5CO[C@@H](C)O[C@H]5[C@H](O)[C@H]3O)[C@H]3COC(=O)[C@H]23)OCO4)cc(OC)c1O [Etoposide, reference compound] |  | 35% |  |  |  |  |  |  |  |  |  |  |  |  |  |  |  |  |  |  |  |
| Nc1ccn([C@@H]2O[C@H](CO)[C@@H](O)C2(F)F)c(=O)n1 [Gemcitabine, reference compound] |  |  | 85% | Vm = 51 (±14) mm^3 | 0.4 metastases per animal | 0/13 | 0/13 | 0/13 | 0/13 | 1/13 | 1/13 | 0/13 | 0/13 | 0/13 | 0/13 | 0/13 | 0/13 | 1/13 | 2/13 | 0/13 | Necrosis Primary tumor [2]: 4/13; Tumor take rate Primary tumor [2]: 13/13; Body weight (m) [2]: m = −2 (±5)% |
| O=C1NC(=O)C(c2ccc(-c3ccccc3)cc2)(N2CCN(c3ccc([N+](=O)[O-])cc3)CC2)C(=O)N1 [RO 28-2653, 5-(4-biphenyl)-5-[N-(4-nitrophenyl)piperazinyl] barbituric acid] | 63% | 86% | 66% | Vm = 112 (±46) mm^3 | 2.5 metastases per animal | 3/13 | 1/13 | 0/13 | 4/13 | 3/13 | 2/13 | 2/13 | 2/13 | 5/13 | 0/13 | 0/13 | 6/13 | 3/13 | 2/13 | 0/13 | side effects [3]: no side effects; Necrosis Primary tumor [2]: 1/13; Tumor take rate Primary tumor [2]: 13/13; Body weight (m) [2]: m = −5 (±4)% |
